# Several values for one entry are separate records, joined by “and”; a condition that tells them apart may be missing. Identical values can stand only once.
# Tested on: THP-1 viability, CellTiter-Glo luminescence, 72 h
# Experiment: THP-1 cell cytotoxicity, dose response, cytotoxicity control for Salmonella PhoP regulon inhibitors, S. typhimurium screen hits (AID 2253)
row,SMILES,EC50
1,CCC(C)(C)c1ccc(OCCCC[n+]2ccccc2)c(C(C)(C)CC)c1,1.2 µM
2,COc1c(Cl)cnn(-c2ccc(C)cc2)c1=O,16.5 µM
3,O=C(N/N=C/c1cccc([N+](=O)[O-])c1O)c1cccs1,13.4 µM
4,N=C(N)SCc1cn(-c2ccccc2)nc1-c1ccc(Br)cc1,4.83 µM
5,CN(C)CCCN(C(=O)CCc1ccccc1)c1nc2ccc(Cl)cc2s1,25.9 µM
6,Cc1cccc(Nc2c3c(nc4ccccc24)CCC3)c1,9.08 µM
7,Nc1nonc1-n1nnc(C(=O)N/N=C/c2cc(Br)ccc2O)c1CSC1=NCCS1,1.54 µM
8,O=C(/C=C/c1ccco1)NC(=S)Nc1ccc(N2CCCC2)cc1,9.59 µM
9,Cc1ccnc(NC(c2cccnc2)c2ccc3cccnc3c2O)c1 (centres undefined),12 µM
10,O=C(N/N=C/c1ccc(F)cc1)c1cc(-c2ccco2)nc2ccccc12,37.9 µM
11,ON=C1/C(=N\O)CC2(C/C1=N/O)OCCO2,34.5 µM
12,CC1=C(C(=O)OCC2CCCO2)C(c2cccc(C(F)(F)F)c2)C2=C(CC(c3ccco3)CC2=O)N1 (centres undefined),42.7 µM
13,Cc1cc(O)ccc1Nc1nc2ccccc2nc1Nc1ccc(O)cc1C,24.4 µM
14,C[C@H]1c2cccc(O)c2C(O)=C2C(=O)[C@]3(O)C(O)=C(C(N)=O)C(=O)[C@@H](N(C)C)C3[C@@H](O)C21 (some centres undefined),30.7 µM
15,c1ccc2c(CCNCc3ccc4c(c3)OCO4)c[nH]c2c1,24.2 µM
16,CC(O)CNCCNCc1c(OCc2ccccc2)ccc2ccccc12 (centres undefined),14.2 µM
17,c1ccc2cc(CSCc3nc4ccccc4[nH]3)ccc2c1,42.6 µM
18,c1ccc(CNc2c3c(nc4ccccc24)CCC3)cc1,11.3 µM
19,Cc1ccc(O)c(-c2cc(-c3ccccc3C)[nH]n2)c1,19.9 µM
20,CCc1ccc(-c2nn(-c3ccccc3)cc2CSC(=N)N)cc1,6.52 µM
21,Cc1cc(/C=N/NC(N)=S)c(C)n1-c1ccc(Cl)c(Cl)c1,19.8 µM
22,O=[N+]([O-])/C=C/c1cc2ccccc2[nH]1,31.6 µM
23,COc1ccc(C(=O)Cn2nc(CNc3ccc(Br)cc3)[n+]3c2CCCCC3)cc1,7.74 µM

row,SMILES,EC50
1,CC[C@@H](C)[C@H](CNC)NC[C@@H](Cc1cccc2ccccc12)NCCc1cccc(C(F)(F)F)c1,7 µM
2,CC(C)COc1ccc(Cc2cnc(N)nc2N)cc1,36.9 µM
3,O=C(NCc1ccco1)c1cccc(Nc2nc3ccc(Br)cc3[nH]2)c1,44.6 µM
4,Cc1ccc(/C=C2\SC(=S)N(Cc3ccccc3)C2=O)o1,24.4 µM
5,CC1CCN(c2ccc(NC(=S)NC(=O)c3ccc(-c4cccc([N+](=O)[O-])c4)o3)cc2)CC1,23.1 µM
6,Cc1ccc(C(=O)NNc2c3ccccc3nc3ccccc23)cc1,27.5 µM
7,COc1ccc(CCNC(=S)Nc2cccc3ccccc23)cc1,31.5 µM
8,CC1CCCC(C)N1/N=C/c1c[nH]c2ccc(Br)cc12 (centres undefined),14.4 µM
9,CN1/C(=C\C=N\NC(=O)c2ccccc2Br)C(C)(C)c2ccccc21,32.2 µM
10,O=C1c2ccccc2NC(c2ccc(-c3ccc(Br)cc3)o2)N1O (centres undefined),7.16 µM
11,CCCCCCCCCCCCCCCCn1cc[n+](CC(C)=O)c1,0.8 µM
12,O=C(N/N=C/c1ccc([N+](=O)[O-])o1)c1ccc(O)cc1,12 µM
13,O=C(C[n+]1cc(-c2ccc(Cl)cc2)n2c1CCC2)Nc1nc(-c2ccc(F)cc2)cs1,26.7 µM
14,Cc1ccc(/C=C/C(=O)c2ccccc(=O)c2O)cc1C,17.2 µM
15,COc1ccccc1/C=C1\CCCC2=C1Nc1nnnn1C2c1ccccc1OC (centres undefined),19.6 µM
16,O=C(C[n+]1cccc(CNC(=O)c2ccc(OC(F)F)cc2)c1)Nc1ccc(SC(F)F)cc1,11.7 µM
17,Oc1c(CN2CCCCC2)cc(COCc2ccccc2)c2cccnc12,6 µM
18,CCn1c2ccccc2c2cc(N)ccc21,16.1 µM
19,Nc1nc(F)nc2c1ncn2[C@@H]1O[C@H](CO)[C@@H](O)[C@H]1O,0.3 µM
20,Cn1c(=N)n(CC(=O)c2ccc(Br)s2)c2ccccc21,10.1 µM
21,C/C(=N\Nc1nc2ccccc2[nH]1)c1ccc(Cl)s1,32.6 µM
22,CCCCCCCCCn1c2c(c(=N)c3c1CCC3)CCC2,0.42 µM
23,O=C(Nc1cccc(Cl)c1)C1C2CCC3C(CCC21)C3(Cl)Cl (centres undefined),27.2 µM

row,SMILES,EC50
1,CCOC(=O)N1CCN(S(=O)(=O)c2ccc(C(=O)NNc3nc4cc(C)cc(C)c4s3)cc2)CC1,2.88 µM
2,O=C(Nc1nc(-c2ccccn2)cs1)c1ccc(Cl)s1,0.8 µM
3,O=C(N/N=C/c1cc2c3c(c1O)CCCN3CCC2)c1ccccc1O,3.56 µM
4,CCCOc1ccc(C(=O)C(CCC(CNCC)C(=O)c2ccc(OCCC)cc2)CNCC)cc1 (centres undefined),1.58 µM
5,O=[N+]([O-])c1cc(F)c2cccnc2c1O,30.5 µM
6,CN1/C(=C\C=C\C2=[N+](C)c3ccc4ccccc4c3C2(C)C)C(C)(C)c2ccccc21,0.15 µM
7,C(=Nc1ccc(Nc2ccccc2)cc1)c1ccc2ccccc2c1,25.8 µM
8,CN(c1cccc(Cl)c1)S(=O)(=O)c1cccc(C(=O)Nc2nc3ccccc3[nH]2)c1,13.3 µM
9,c1ccc(CN2CCN(c3nc(NCc4ccco4)c4ccccc4n3)CC2)cc1,20.6 µM
10,CC(C(=O)NC1CCS(=O)(=O)C1)N1C(=O)/C(=C/c2ccc(Cl)cc2)SC1=S (centres undefined),48.9 µM
11,O=C(Cc1ccccc1)Nc1cccc(N2C(=O)C=CC2=O)c1,16.1 µM
12,Cc1[nH]c2ccccc2c1C1=NNC(=Nc2ccc(F)cc2)SC1,12.6 µM
13,O=C(NCCCc1ccccc1)Nc1cccc(Cl)c1,37 µM
14,Nc1cccc2nc3ccccc3cc12,4.25 µM
15,O=S(=O)(/N=C(/Nc1cccc2ccccc12)c1ccccc1)c1cccs1,28.9 µM
16,NC1=NC(=Nc2ccc(Br)cc2)c2ccccc21,25.8 µM
17,CC(=O)n1cc(/C=N/NC(=O)c2sc(C)nc2C)c2ccccc21,11.6 µM
18,CC[n+]1c(/C=C/N(C)c2ccccc2)n(-c2ccccc2)c2ccc(-c3nc4ccccc4s3)cc21,0.46 µM
19,CCCCCCCCCn1c2c(c(=N)c3c1CCC3)CCCC2,0.37 µM
20,CCN(CC)S(=O)(=O)c1cccc(C(=O)N/N=C/c2ccc(O)c(O)c2O)c1,6.68 µM
21,C#CCOCCOCCOCCNc1nc(N2CCN(C(=O)CCCCCCCCCCNC(=O)[C@H](CCCCN)n3cc(C[C@@H](C)CC)nn3)CC2)nc(N2CCN(C(=O)CCCCCCCCCCNC(=O)[C@H](CCCN=C(N)N)n3cc(C[C@@H](C)CC)nn3)CC2)n1,3.88 µM
22,CC(C(=O)c1ccc(-c2ccccc2)cc1)[n+]1cccc(NC(=O)c2ccccc2)c1 (centres undefined),19.6 µM
23,COc1cc(C(=O)NC(=S)Nc2ccc3oc(=O)ccc3c2)cc(OC)c1OC,45.9 µM

row,SMILES,EC50
1,COc1cc(/C=C/[N+](=O)[O-])ccc1O,12.6 µM
2,O=c1cc2oc3cc(O)c(O)cc3c(-c3ccccc3[N+](=O)[O-])c-2cc1O,10.5 µM
3,Cc1ccccc1OCc1n(CC(=O)OC2CC(C)CCC2C(C)C)c2ccccc2[n+]1C (centres undefined),2 µM
4,CCOc1ccc(CNc2ccc(N3CCCC3)cc2)cc1,11.8 µM
5,Oc1ccc(C=Nc2cccc3ncccc23)c(O)c1,43.3 µM
6,CCCCCCCCCCCCCCCC[n+]1cccc2ccccc21,0.27 µM
7,OC(COc1ccc2ccccc2c1Br)Cn1ccnc1 (centres undefined),43.9 µM
8,O=Nc1ccc(O)c2ncccc12,1.77 µM
9,C#CCN1C(=O)C(O)(CC(=O)c2ccc(OC)c(OC)c2)c2ccccc21 (centres undefined),30.5 µM
10,CN(C)CCCNc1cc(C(C)(C)C)nc2c(-c3ccccc3)cnn12,9.26 µM
11,O=c1c(Cl)c(Cl)cnn1-c1ccccc1,1.41 µM
12,Oc1ccccc1NCC(O)Cn1ccc2ccccc21 (centres undefined),28 µM
13,CCCCCCCNC(=O)C1(CC2CC(c3cccc(Br)c3)=NO2)CCNCC1 (centres undefined),4.13 µM
14,COc1ccc(C(C[N+](=O)[O-])c2c(-c3ccccc3)cc3ccccn23)cc1 (centres undefined),12.8 µM
15,N/C(=N\OC(=O)N1c2ccccc2Sc2ccccc21)c1ccccc1,25.1 µM
16,Clc1ccc(Cl)c(OCCCCNCc2ccccc2)c1,27.4 µM
17,COc1cccc(/C=N/n2c(C)nc3ccccc3c2=O)c1O,27.7 µM
18,CCC(C)(C)c1ccc(OCCCC[n+]2ccc(C)cc2)c(C(C)(C)CC)c1,1.48 µM
19,CCCC(=O)NC(c1ccc(N(C)C)cc1)c1ccc2cccnc2c1O (centres undefined),0.61 µM
20,C[CH2][Hg][S]c1ccccc1C(=O)O,0.71 µM
21,O=C(Nc1cccc(N=Cc2cc(Br)cc(Br)c2O)c1)c1ccco1,38.5 µM
22,CCCCn1c(/N=C/c2c[nH]c3ccccc23)nc2ccccc21,27.2 µM
23,Cc1ccc2nc(C)c(CN3CCN(c4ccc([N+](=O)[O-])cc4Cl)CC3)n2c1,19.7 µM

row,SMILES,EC50
1,CNc1cc(Cl)c2nonc2c1[N+](=O)[O-],3.65 µM
2,Cc1cc(Nc2ccccc2)nc2cc(O)ccc12,36.6 µM
3,Cc1ccc(S(=O)(=O)/N=C2/C=C(Sc3ncn[nH]3)C(=O)c3ccccc32)c(C)c1,5.51 µM
4,NC(N)=NN=C1CCCCCCCCCCC1,7.67 µM
5,Cc1ccc(Nc2nc(N)c3ccccc3n2)cc1Cl,16.3 µM
6,Cc1ccc(S(=O)(=O)c2c(C(=O)c3ccccc3)cnc3cc4c(cc23)OCCO4)cc1,30.2 µM
7,Nc1ccc(Nc2ccccc2)cc1,11.6 µM
8,O=C1c2ccccc2C(=O)c2[nH]c(=O)[nH]c21,4.83 µM
9,CCCc1cnc(NCCNCC(O)COc2ccc(Cl)c(Cl)c2)nc1 (centres undefined),11.8 µM
10,CC(=O)NC(c1cccs1)c1cc([N+](=O)[O-])c2cccnc2c1O (centres undefined),10.1 µM
11,CCN1CCN(C(c2cccnc2)c2cc(Cl)c3cccnc3c2O)CC1 (centres undefined),8.34 µM
12,Cc1c2ccncc2c(C)c2c1[nH]c1ccccc12,2.53 µM
13,O=C(NC(NC(=S)Nc1ccc(Cl)c(Cl)c1)C(Cl)(Cl)Cl)c1ccco1 (centres undefined),23.5 µM
14,CCCCCCCCCCOC(=O)Cn1c(COc2ccc(OC)cc2)[n+](C)c2ccccc21,3.17 µM and 2.22 µM
15,O=C(NC(=S)NNC(=O)c1ccccc1O)c1ccco1,14.6 µM
16,Cc1cc(SCC(=O)N/N=C/c2ccc(O)c(O)c2O)c(C)cc1Br,2.76 µM
17,C/C(=N\N=C(N)N)c1ccc(Cl)c(Cl)c1,11.2 µM
18,CC(=O)Nc1cc(N=Cc2ccc(O)cc2O)c(Cl)cc1Cl,45.3 µM
19,O=C1OC(/C(=C\Nc2ccc(F)cc2F)[N+](=O)[O-])c2ccccc21 (centres undefined),31.7 µM
20,CCOc1cc(/C=C2/NC(=O)N(CC(=O)Nc3cccc(C)c3)C2=O)ccc1OC,30.8 µM
21,c1csc(C2Nc3ccccc3-c3nc4ccccc4n32)c1 (centres undefined),33.7 µM
22,O=C(OCC1O[C@@H](OC(=O)c2cc(O)c(O)c(O)c2)[C@@H](OC(=O)c2cc(O)c(O)c(O)c2)[C@@H](OC(=O)c2cc(O)c(O)c(O)c2)[C@@H]1OC(=O)c1cc(O)c(O)c(O)c1)c1cc(O)c(O)c(O)c1 (some centres undefined),14 µM
